Two compounds from ChEMBL document CHEMBL1140470, “Synthesis and in vitro evaluation of a selective antagonist and the corresponding radioligand for the prostaglandin D2 receptor CRTH2” (Bioorg Med Chem Lett, 2007) can be followed below.

Experiment [1] has as its target T1, Prostaglandin D2 receptor 2 (Homo sapiens, UniProt Q9Y5Y4).
T1 sequence (Q9Y5Y4 whole entry): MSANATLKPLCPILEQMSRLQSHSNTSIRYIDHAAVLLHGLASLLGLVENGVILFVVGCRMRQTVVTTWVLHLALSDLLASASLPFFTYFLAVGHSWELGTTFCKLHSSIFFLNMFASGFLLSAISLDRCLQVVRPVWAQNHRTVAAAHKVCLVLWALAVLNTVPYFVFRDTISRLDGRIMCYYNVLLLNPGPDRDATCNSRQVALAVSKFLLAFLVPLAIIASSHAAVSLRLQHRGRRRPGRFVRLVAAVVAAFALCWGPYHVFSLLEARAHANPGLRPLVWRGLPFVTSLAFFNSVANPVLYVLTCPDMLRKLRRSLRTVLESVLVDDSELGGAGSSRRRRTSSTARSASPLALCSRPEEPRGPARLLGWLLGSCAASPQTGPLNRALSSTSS
The experiment is described as follows: Displacement of [3H]PGD2 from human CRTH2 receptor. For orientation: Displacement assays read how much labelled ligand stays bound in the presence of the test substance.

Experiment [2] has as its target T1, Prostaglandin D2 receptor 2. The experiment is described as follows: Antagonist activity at human CRTH2 receptor assessed as inhibition of PGD2-induced signaling by inositol-phosphate assay. The class given is functional.
The target in experiment [3] is T2, Prostaglandin D2 receptor 2 (Homo sapiens) (UniProt Q9Y5Y4).
T2 sequence (whole entry): T1 sequence (Q9Y5Y4 whole entry)
The experiment is described as follows: (§1) Displacement of [3H]TRQ11238 from human CRTH2 receptor expressed in HEK293 cells. Conditions: tested as the 3H-labelled form. The class given is cell-based.

Another experiment deals with CRTH2 (Homo sapiens). The experiment is described as follows: Selectivity for CRTH2 over DP and TP receptors.
The target in experiment [4] is T1, Prostaglandin D2 receptor 2. Described as §1. The class given is cell-based.

Each structure is given as a SMILES string.

One may read the Ki as a dissociation constant, usually derived from enzyme kinetics or from competition with a known ligand. High values mean a looser hold on the target, low ones a stronger hold on the target. A word on the IC50: it is the concentration needed to halve the response being measured. On to `O=C(O)Cn1cc(CCN(Cc2ccccc2)S(=O)(=O)c2ccc(F)cc2)c2ccccc21`, for which the Ki in experiment [1] was 0.631 nM. The IC50 in experiment [2] was 3.98 nM. The compound also came in with a Bmax in experiment [3] of 2790 fmol/mg. The Selectivity ratio with CRTH2 (Homo sapiens) is greater than 1000.

What is called Kd is the equilibrium constant for the complex coming apart. In experiment [4], `[3H]c1cc([3H])cc(CN(CCc2cn(CC(=O)O)c3ccccc23)S(=O)(=O)c2ccc(F)cc2)c1` gave a dissociation constant Kd of 1 nM.
